Assays:
Assay type in all cases: in vivo
[1] = test system: Boll Weevil (Anthonomus grandis); test: Boll weevil, insect diet microtiter plate test; conditions: 120 h, 2500 ppm, eggs on sprayed insect diet, egg and larval mortality after 5 days, in comparison with untreated controls, read-out: mortality
Description: B.5 Boll Weevil (Anthonomus grandis)
For evaluating control of boll weevil (Anthonomus grandis) the test unit consisted of 96-well-microtiter plates containing an insect diet and 5-10 A. grandis eggs.
(§1) The compounds were formulated using a solution containing 75% v/v water and 25% v/v DMSO. Different concentrations of formulated compounds were sprayed onto the insect diet at 5 μl, using a custom built micro atomizer, at two replications.
After application, microtiter plates were incubated at about 25±1° C. and about 75±5% relative humidity for 5 days. Egg and larval mortality was then visually assessed.

[2] = test system: Rice Green Leafhopper (Nephotettix virescens); test: Rice green leafhopper, sprayed rice seedlings; conditions: 300 ppm, adults on sprayed rice seedlings, after 72 hours, in comparison with untreated controls, read-out: mortality
Description: B.8 Rice Green Leafhopper (Nephotettix virescens)
Rice seedlings were cleaned and washed 24 hours before spraying. The active compounds were formulated in 1:1 acetone:water (vol:vol), and 0.01% vol/vol surfactant (Kinetic HV) was added. Potted rice seedlings were sprayed with 5-6 ml test solution, air dried, covered with Mylar cages cages and inoculated with 10 adults. Treated rice plants were kept at about 28-29° C. and relative humidity of about 50-60%. Percent mortality was recorded after 72 hours.

[3] = test system: Vetch Aphid (Megoura viciae); test: Vetch aphid, broad bean leaf disk test; conditions: foliar, 120 h, 2500 ppm, adult aphids on sprayed broad bean leaf disks, 5 days, in comparison with untreated controls, read-out: mortality
Description: B.3 Vetch Aphid (Megoura viciae)
For evaluating control of vetch aphid (Megoura viciae) through contact or systemic means the test unit consisted of 24-well-microtiter plates containing broad bean leaf disks.
The compounds were formulated using a solution containing 75% v/v water and 25% v/v DMSO. Different concentrations of formulated compounds were sprayed onto the leaf disks at 2.5 μl, using a custom built micro atomizer, at two replications.
After application, the leaf disks were air-dried and 5-8 adult aphids placed on the leaf disks inside the microtiter plate wells. The aphids were then allowed to suck on the treated leaf disks and incubated at about 23±1° C. and about 50±5% relative humidity for 5 days. Aphid mortality and fecundity was then visually assessed.

[4] = test system: Diamond Back Moth (Plutella xylostella); test: Diamond back moth, cabbage leaf dip test; conditions: foliar, 300 ppm, 3rd instar larvae on dipped cabbage leaves, 72 hours after treatment, in comparison with untreated controls, read-out: mortality
Description: B.1 Diamond Back Moth (Plutella xylostella)
The active compound was dissolved at the desired concentration in a mixture of 1:1 (vol:vol) distilled water:aceteone. Surfactant (Kinetic HV) was added at a rate of 0.01% (vol/vol). The test solution was prepared at the day of use.
Leaves of cabbage were dipped in test solution and air-dried. Treated leaves were placed in petri dishes lined with moist filter paper and inoculated with ten 3rd instar larvae. Mortality was recorded 72 hours after treatment.

[5] = test system: Tobacco Budworm (Heliothis virescens); test: Tobacco budworm, insect diet microtiter plate test; conditions: 120 h, 2500 ppm, eggs on sprayed insect diet, egg and larval mortality after 5 days, in comparison with untreated controls, read-out: mortality
Description: B.4 Tobacco Budworm (Heliothis virescens)
For evaluating control of tobacco budworm (HeliothiS virescens) the test unit consisted of 96-well-microtiter plates containing an insect diet and 15-25 H. virescens eggs.
The compounds were formulated using a solution containing 75% v/v water and 25% v/v DMSO. Different concentrations of formulated compounds were sprayed onto the insect diet at 10 μl, using a custom built micro atomizer, at two replications.
(§2) After application, microtiter plates were incubated at about 28±1° C. and about 80±5% relative humidity for 5 days. Egg and larval mortality was then visually assessed.

[6] = test system: Southern Armyworm (Spodoptera eridania); test: Southern armyworm, sprayed lima bean plants; conditions: 96 h, 1 ppm, larvae on sprayed lima bean plants, 4 days after treatment, in comparison with untreated controls, read-out: mortality
Description: B.10 Southern Armyworm (Spodoptera eridania)
The active compounds were formulated in cyclohexanone as a 10,000 ppm solution supplied in tubes. The tubes were inserted into an automated electrostatic sprayer equipped with an atomizing nozzle and they served as stock solutions for which lower dilutions were made in 50% acetone:50% water (v/v). A nonionic surfactant (Kinetic®) was included in the solution at a volume of 0.01% (v/v).
Lima bean plants (variety Sieva) were grown 2 plants to a pot and selected for treatment at the 1st true leaf stage. Test solutions were sprayed onto the foliage by an automated electrostatic plant sprayer equipped with an atomizing spray nozzle. The plants were dried in the sprayer fume hood and then removed from the sprayer. Each pot was placed into perforated plastic bags with a zip closure. About 10 to 11 armyworm larvae were placed into the bag and the bags zipped closed. Test plants were maintained in a growth room at about 25° C. and about 20-40% relative humidity for 4 days, avoiding direct exposure to fluorescent light (24 hour photoperiod) to prevent trapping of heat inside the bags. Mortality and reduced feeding were assessed 4 days after treatment, compared to untreated control plants.

[7] = test system: Orchid Thrips (dichromothrips corbetti); test: Orchid thrips, floral-immersion technique; conditions: 300 ppm; adult thrips on dipped orchid petals; 72 hours after treatment; in comparison with untreated controls; read-out: mortality
Description: B.7 Orchid Thrips (dichromothrips corbetti)
Dichromothrips corbetti adults used for bioassay were obtained from a colony maintained continuously under laboratory conditions. For testing purposes, the test compound is diluted in a 1:1 mixture of acetone:water (vol:vol), plus Kinetic HV at a rate of 0.01% v/v.
Thrips potency of each compound was evaluated by using a floral-immersion technique. All petals of individual, intact orchid flowers were dipped into treatment solution and allowed to dry in Petri dishes. Treated petals were placed into individual re-sealable plastic along with about 20 adult thrips. All test arenas were held under continuous light and a temperature of about 28° C. for duration of the assay. After 3 days, the numbers of live thrips were counted on each petal. The percent mortality was recorded 72 hours after treatment.

[8] = test system: Green Soldier Stink Bug (Nezara viridula); test: Green soldier stink bug, sprayed soybean pods in Petri dishes; conditions: 120 h, 300 ppm, late 3rd instar on soybean pods, after 5 days, in comparison with untreated controls, read-out: mortality
Description: B.11 Green Soldier Stink Bug (Nezara viridula)
The active compound was dissolved at the desired concentration in a mixture of 1:1 (vol:vol) distilled water:acetone. Surfactant (Kinetic HV) was added at a rate of 0.01% (vol/vol). The test solution was prepared at the day of use.
Soybean pods were placed in glass Petri dishes lined with moist filter paper and inoculated with ten late 3rd instar N. viridula. Using a hand atomizer, approximately 2 ml solution is sprayed into each Petri dish. Assay arenas were kept at about 25° C. Percent mortality was recorded after 5 days.

[9] = test system: Mediterranean Fruitfly (Ceratitis capitata); test: Mediterranean fruitfly, insect diet microtiter plate test; conditions: 120 h, 2500 ppm, eggs on sprayed insect diet, egg and larval mortality after 5 days, in comparison with untreated controls, read-out: mortality
Description: B.6 Mediterranean Fruitfly (Ceratitis capitata)
as §1, with “For evaluating control of Mediterranean fruitfly (CeratitiS capitata) the test unit consisted of microtiter plates containing an insect diet and 50-80 C. capitata eggs. The” for “The”
as §2

O=C(NC1CS(=O)(=O)C1)c1ccc(C2=NCC(c3cc(Cl)c(F)c(Cl)c3)(C(F)(F)F)C2)c2c1CCC2 (stereo not drawn) [Compound 2-3, 7-[3-(3,5-Dichloro-4-fluoro-phenyl)-3-(trifluoromethyl)-2,4-dihydropyrrol-5-yl]-N-(1,1-dioxothietan-3-yl)indane-4-carboxamide]
≥ 75%: mortality at 2500 ppm [1] | mortality at 300 ppm [2] | mortality at 2500 ppm [3] | mortality at 300 ppm [4] | mortality at 2500 ppm [5] | mortality at 1 ppm [6] | mortality at 300 ppm [7] | mortality at 300 ppm [8] | mortality at 2500 ppm [9]
